The subject of experiment [1] is ovariectomized mice. Briefly: Serum E2, LH and FSH of ovariectomized mice by ELISA. Format: in vivo, female ICR mice. The settings on record: 1 mg/kg, one time per day, 14 days, M ± SD. As for the experimental part: (§1) 3.1 Healthy female ICR mice weighted 20±2 g were anaesthetized by ether and fixed in the abdomen. Bilateral ovaries of the mice were extirpated via back incision below the costal bone. The wounds were stitched and the mice were cultured according to conventional methods. After the wounds were cured, vaginal smear examination was performed, one time per day for five consecutive days, to ensure the ovaries were completely extirpated. The mice in the dioestrum (observations of vaginal smears under microscope found a lot of polynuclear leucocytes and few epithelial cells) in the five consecutive days were qualified mice. 48 mice were randomly divided into 6 groups with each group 8 mice, that is, a model group (be administered with equal volume of normal saline), a diethyl stilbestrol group (1 mg/kg), J01 groups (144 mg/kg, 288 mg/kg), J02 groups (180 mg/kg, 360 mg/kg). Another 6 mice with bilateral ovaries were selected as a control group (be administered with equal volume of normal saline). The mice were administered with corresponding drugs, one time per day, for 14 consecutive days. After one hour from the last injection, blood was sampled from the orbital venous plexus, and centrifuged for 10 min at 3000 rpm. The serum was separated and the E2, LH and FSH values thereof were measured using ELISA method. Thereafter, the abdominal cavity was cut open quickly and thymus, spleen, and uterus were separated and weighed to calculate the coefficients of the thymus, spleen, and uterus.
(§2) The mice were administered with corresponding drugs, 5 mL/kg, one time per day, for 14 consecutive days.
(§3) Viscera index: coefficients of the thymus, spleen, and uterus. Viscera index=organ weight/mice body weight*10. Serum index: E2 (estradiol), LH (luteinizing hormone), FSH (follicle stimulating hormone).
(§4) The difference between groups of the measured data is examined based on ANOVA T-TEST using SPSS10.0.

For experiment [2], the system named is ovariectomized mice. Briefly: Viscera index (thymus, spleen, uterus coefficients) of ovariectomized mice. Format: in vivo, female ICR mice. The settings on record: 1 mg/kg, one time per day, 14 days, M ± SD. The method, then: as §1, §2, §3, §4

As for `CC/C(=C(/CC)c1ccc(O)cc1)c1ccc(O)cc1` [Diethylstilbestrol], in the experiment on ovariectomized mice [1], the “E2 (Estrogen)” value came to 113.81 ± 33.85 pg/mL, the “FSH (Follicle Stimulating Hormone)” value is 22.54 ± 6.97 ng/mL and the “LH (luteinizing hormone)” value is given as 31.33 ± 4.51 ng/mL. In the experiment on ovariectomized mice [2], this molecule registered a Spleen index of 66.67 ± 16.93 mg/10 g, a Thymus index of 32.99 ± 8.11 mg/10 g and a Uterus index of 62.67 ± 11.89 mg/10 g.

These data come from patent US10016366B2, “Method of preparing lyophilized powder for injection comprising aloe and Panax pseudo-ginseng” (priority 2013, dated 2018).
